The values below come from paper PMC6007898, “Methyl dihydrojasmonate and lilial are the constituents with an "off-label" insect repellence in perfumes” (PLoS ONE, 2018).

This assay concerns the target T1, CquiOR136/CquiOrco (Culex quinquefasciatus, UniProt A0A0A0QKD4).
T1 construct: odorant receptor co-expressed with its co-receptor Orco in Xenopus oocytes; with Odorant receptor coreceptor
T1 sequence (A0A0A0QKD4 1-436): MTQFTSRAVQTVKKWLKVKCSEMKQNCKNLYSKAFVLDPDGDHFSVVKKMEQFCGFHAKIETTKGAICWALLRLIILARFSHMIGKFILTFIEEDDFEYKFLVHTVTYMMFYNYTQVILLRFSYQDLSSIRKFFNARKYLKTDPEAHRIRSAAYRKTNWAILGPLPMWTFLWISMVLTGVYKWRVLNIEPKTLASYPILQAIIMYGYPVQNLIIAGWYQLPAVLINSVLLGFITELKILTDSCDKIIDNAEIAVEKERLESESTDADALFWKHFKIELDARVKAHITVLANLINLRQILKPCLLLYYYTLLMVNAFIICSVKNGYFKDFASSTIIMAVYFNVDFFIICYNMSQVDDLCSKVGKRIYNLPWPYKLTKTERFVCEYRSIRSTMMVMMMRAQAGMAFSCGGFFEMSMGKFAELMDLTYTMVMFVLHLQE
In words: two-electrode voltage clamp, Xenopus oocytes. Type of assay: cell-based. Particulars: holding potential -80 mV, CquiOrco co-expressed, agonist. As to the method:
All compounds were tested at the same dose

As to `CCCCCC1C(=O)CCC1CC(=O)OC` (mixture of isomers) [MDJ, methyl 2-(3-oxo-2-pentylcyclopentyl)acetate], the “current at 1 mM” value is on record as “The currents elicited by methyl dihydrojasmonate were significantly higher than those elicited by lilial”.
On to `CC(C=O)Cc1ccc(C(C)(C)C)cc1` (centres unmarked) [lilial], for which the “current at 1 mM” value is on record as “both compounds were somewhat strong repellents, they activated CquiOR136 differently”.
